We go through four compounds from patent publication US8536137B2, “Methods for treating nucleoside-induced pain” (UCB Pharma GmbH, priority 2004, dated 2013).

The subject of test [1] is ddC-rats. Kind of test: Nucleoside-induced pain model (ddC): brushing test at day 20 (mechanical allodynia). Format: in vivo, rat. The procedure:
(§1) ANOVA followed by post-hoc analysis (Dunneft's test) was used to compare groups of behavioral data in each individual time points.
(§2) For this study, 50 male Sprague Dawley (˜220 g) rats were used (Janvier, Le Genest-St-isle, France). Rats were group-housed (3 animals per cage) and maintained in a room with controlled temperature (21-22° C.) and a reversed light-dark cycle (12 h/12 h) with food and water available ad libitum. All experiments were carried out in accordance with institutional guidelines. Intoxication was achieved by a single injection of ddC (50 mg/kg, I.V. in tail vein).
The hair on the legs, flanks, and lower back was sequentially brushed with a cotton-tipped applicator using an oscillating motion (rate of 1-2/s; 30 sec). Brushing was done with no more force than required to move the applicator through the hair such that only the pelage is disturbed. Vocalization and moderate effects to avoid the brushing were counted.

Test [2] deals with ddC-rats. Kind of test: Nucleoside-induced pain model (ddC): cold bath test (thermal allodynia). Format: in vivo, rat. The conditions noted are these: for threshold latency in cold bath test vs ddC/vehicle: p<0.05 Dunnett's, comparable to control animals. On the procedure: (§3) Animals were placed on ice platform submerged approximately 1 cm below the surface of cold water (4° C.), such that the hairy and glabrous skin of the animal feet was in contact with the cold water. The latency before the first reaction (licking, moving the paws, little leaps) was recorded with a cut off time of 30 s.
as §1, §2

Test [3] relates to vincristine-rats. The test can be described thus: Vincristine-induced pain model: paw pressure test (mechanical hyperalgesia). Format: in vivo, rat. The conditions noted are these: day 17; for paw withdrawal latency in paw pressure test (Randall & Selitto): p<0.05 Dunnett's. The procedure: (§4) For this study, 86 female Dark Agouti rats (150-200 g) were used (Harlan, Gannat, France), They were group-housed (3 animals per cage) and maintained in a room with controlled temperature (21-22° C.) and a reversed light-dark cycle (12 h/12 h) with food and water available ad libitum. All experiments were carried out in accordance with institutional guidelines. Vincristine intoxication was achieved by daily injection of vincristine (0.15 mg/kg/d, i.p.) from day 1 to 5, from day 8 to 12 and days 15 to 16. On day 17, animals were submitted to the behavioral test and received pharmacological treatment.
(§5) The nociceptive flexion reflex was quantified using the Randall-Selitto paw pressure device (Bioseb, France), which applies a linearly increasing mechanical force to the dorsum of the rat's hind paw. The mechanical nociceptive threshold was defined as the force in grams at which the rat withdrew its paw. The cut off pressure was set to 250 g.
as §1

Test [4] relates to ddC-rats. The test can be described thus: Nucleoside-induced pain model (ddC): von Frey filament test at D10 (mechanical allodynia). The conditions noted are these: for paw withdrawal latency in von Frey filament test, difference with vehicle-treated group: p<0.05, level comparable to control group. It is filed as in vivo, rat. On the procedure: (§6) Rats were placed on a metallic grid floor. The nociceptive testing was done by inserting the von Frey filament (Bioseb, France) through the grid floor and applying it to the plantar surface of the hind paw. A trial consisted of several applications of the different von Frey filaments (at a frequency of 1-1.5 s). The von Frey filaments were applied from filament 10 g to 100 g. The mechanical allodynia threshold was recorded as soon as the animal removed its hind paw the test was stopped and the filament number was recorded.
as §1, §2

Test [5] concerns vincristine-rats. The test can be described thus: Vincristine-induced pain model: hot plate test at 38° C. (thermal allodynia). Format: in vivo, rat. The conditions noted are these: day 17. The procedure:
as §4
(§7) Animals were placed into a glass cylinder on a hot plate (Bioblock, France) adjusted to 38° C. or 52° C. The latency of the first reaction (licking, moving the paws, little leaps or a jump to escape the heat) was recorded with a cut off time of 30 s.
as §1

The test system of test [6] is vincristine-rats. The test can be described thus: Vincristine-induced pain model: cold bath test (thermal allodynia). It is filed as in vivo, rat. The conditions noted are these: day 17; for threshold latency in cold bath test vs vincristine/vehicle: 30 min before test. On the procedure:
as §4, §3, §1

The subject of test [7] is ddC-rats. Kind of test: Nucleoside-induced pain model (ddC): paw pressure test at D10 (mechanical hyperalgesia). It is filed as in vivo, rat. The conditions noted are these: p<0.05 Dunnett's.
Text: as §5, §1, §2

The test system of test [8] is vincristine-rats. The test can be described thus: Vincristine-induced pain model: von Frey hair stimulation test (mechanical allodynia). It is filed as in vivo, rat. The conditions noted are these: day 17; for paw withdrawal latency in von Frey filament test, difference with vehicle-treated group: p<0.05 Dunnett's. On the procedure:
as §4, §6, §1

The subject of test [9] is rats intoxicated with anti-retroviral nucleoside analogue AIDS therapy drugs. The conditions noted are these: intoxicated animals; literature report; cited from earlier work.
For test [10], the system named is rat model of bone cancer pain, chemotherapy- and nucleoside-induced pain. Kind of test: Overall summary of the bone cancer, chemotherapy-induced and nucleoside-induced pain models. The conditions noted are these: across the three rat models. It is filed as in vivo. An excerpt: The effect of systemic administration of SPM 927 was examined in rats in a tumor-induced bone cancer pain model, in a chemotherapy-induced and a nucleoside analogue-induced neuropathic pain model. SPM 927 reduced mechanical and thermal hyperalgesia as well as mechanical and thermal allodynia in these models.

The subject of test [11] is bone cancer rats (MRMT-1 rat mammary gland carcinoma cells injected into the tibia). The test can be described thus: Bone cancer rat model: thermal paw stimulation (thermal hyperalgesia). It is filed as in vivo. The conditions noted are these: SPM 927 30 mg/kg, days 14 and 15; Dunnett's p<0.001.
Protocol: Cells were cultured in medium containing RPMI-1640 (Gibco, 500 ml), 10% heat-inactivated fetal bovine serum (Hyclone), L-glutamine (final concentration 2 mM, from Gibco) and antibiotic solution (final concentration 100 U/ml penicillin and 100 ug/ml streptomycin sulfate, from Gibco). Cells were released from the tissue culture flask by brief exposure to 0.1% trypsin so (Gibco) and then prepared for injection as follows: cells were centrifuged for 10 minutes at approximately 1,200 rpm. The resulting pellet was washed twice in Phosphate Buffered Saline (PBS, Mediatech) containing no calcium or magnesium. Final pellet was re-suspended in PBS and cell count taken using a hemocytometer. Cells were diluted to achieve final concentrations for injection and kept on ice until injection was performed.
After one week of quarantine, either culture media or 3×10^4 syngeneic MRMT-1 rat mammary gland carcinoma cells were injected into the medullary cavity of the proximal tibia of each rat. Procedurally, the animal was first anesthetized with ketamine/xylazine and the right leg area shaved and treated with an iodine solution and cleaned with a 70% ethanol solution. A 1-cm rostral-caudal incision was made in the skin over the top half of the tibia. […]
On days 7, 8, 14 and 15, pain assessment tests were performed. […] The animals were first evaluated for mechanical allodynia and then thermal hyperalgesia. […]
Test [12] has the same test system. Kind of test: Bone cancer rat model: weight bearing difference (mechanical hyperalgesia). It is filed as in vivo. The conditions noted are these: SPM 927 40 mg/kg, following treatment; p<0.05.
Protocol: After one week of quarantine, either culture media or 3×10^4 syngeneic MRMT-1 rat mammary gland carcinoma cells were injected into the medullary cavity of the proximal tibia of each rat. Procedurally, the animal was first anesthetized with ketamine/xylazine and the right leg area shaved and treated with an iodine solution and cleaned with a 70% ethanol solution. A 1-cm rostral-caudal incision was made in the skin over the top half of the tibia. Blunt-dissection was performed to expose the tibia, ensuring minimal damage to muscles or blood vessels. Using a 23-gauge needle, the tibia was pierced. […] The needle was inserted at an angle to enable it to be pushed down into the intramedullary canal of the bone. Once a pathway to the intramedullary canal was opened, the 23-gauge needle was removed and replaced by a blunt needle attached to a 5 μl Hamilton syringe. […]
On days 7, 8, 14 and 15, pain assessment tests were performed. […] The animals were first evaluated for mechanical allodynia and then thermal hyperalgesia. […] The animals were first evaluated for baseline weight bearing responses. […]
After the animals in groups 4-6 were re-randomized to drug treatment groups, on day 9, 15 all animals underwent weight-bearing testing. Weight bearing of affected hind limbs was assessed as the difference in weight borne by the ipsilateral compared to the contralateral limb. […]
Test [13] deals with vincristine-rats. Kind of test: Vincristine-induced pain model: hot plate test at 52° C. (thermal hyperalgesia). The conditions noted are these: day 17, p<0.05 Dunnett's, comparable with control. Format: in vivo, rat. On the procedure: as §4, §7, §1
The subject of test [14] is ddC-rats. Kind of test: Nucleoside-induced pain model (ddC): hot plate test at 52° C. at D20 (thermal hyperalgesia). Format: in vivo, rat. On the procedure: as §7, §1, §2

On to `CN1CC[C@]23c4c5ccc(O)c4O[C@H]2[C@@H](O)C=C[C@H]3[C@H]1C5` [morphine, reference compound], for which the “total number of cries in brushing test” value in the test on ddC-rats [1] (morphine 3 mg/kg s.c., D 20) is reported as “significantly decrease”. The “threshold latency in cold bath test, level reached” value in the test on ddC-rats [2] (morphine 3 mg/kg s.c.) is listed as “comparable to that obtained from control rats”; with vincristine-rats [6] (morphine 3 mg/kg s.c., 45 min before test) it was “far above that obtained from control rats”. The “performance in paw pressure test (Randall & Selitto)” value in the test on vincristine-rats [3] (morphine 3 mg/kg s.c., p>0.05) is “did not modify the performance”; with ddC-rats [7] (morphine 3 mg/kg s.c.) it was “increased the performance”. In addition, the “performance in von Frey filament test” value is “restored the performance of ddC-rats to a level similar to control group” in the test with ddC-rats [4] (morphine 3 mg/kg s.c.) and “restored the performance of vincristine-rats to a level comparable with that of control group” in the test with vincristine-rats [8] (morphine 3 mg/kg s.c.). The “threshold latency in hot plate (38° C.) test, level reached” value with vincristine-rats [5] (morphine 3 mg/kg s.c.) is “comparable with that of control rats”.
As to `CCN(CC)CCCCCCCCOC(=O)c1cc(OC)c(OC)c(OC)c1` [TMB-8], the “reversal of nucleoside reverse transcriptase inhibitor-induced hypersensitivity” value in test [9] is “capable of reversing”.
Consider `COc1cc(N(CC(=O)O)CC(=O)O)c2nc(COc3cc(C)ccc3N(CC(=O)O)CC(=O)O)ccc2c1` [Quin-2], for which the “reversal of nucleoside reverse transcriptase inhibitor-induced hypersensitivity” value in test [9] is “capable of reversing”.
Take `COC[C@@H](NC(C)=O)C(=O)NCc1ccccc1` [SPM 927, (R)-2-acetamide-N-benzyl-3-methoxypropionamide]: the “total number of cries in brushing test” value is “significant decrease” in the test with ddC-rats [1] (SPM 927 3 mg/kg i.p., D 20, p<0.05 Dunnett's); “significant decrease” in the test with ddC-rats [1] (SPM 927 10 mg/kg i.p., D 20, p<0.05 Dunnett's); “significant decrease” with ddC-rats [1] (SPM 927 30 mg/kg i.p., D20, p<0.05 Dunnett's). In addition, the “threshold latency in cold bath test vs ddC/vehicle” value in the test on ddC-rats [2] (SPM 927 3 mg/kg i.p.), in the test with ddC-rats [2] (SPM 927 10 mg/kg i.p.) and with ddC-rats [2] (SPM 927 30 mg/kg i.p.) was “significant increase” throughout. Further, the “paw withdrawal latency in paw pressure test (Randall & Selitto)” value in the test with vincristine-rats [3] (SPM 927 10 mg/kg i.p.), in the test with vincristine-rats [3] (SPM 927 30 mg/kg i.p.), in the test with ddC-rats [7] (SPM 927 3 mg/kg i.p.), in the test on ddC-rats [7] (SPM 927 10 mg/kg i.p.) and in the test with ddC-rats [7] (SPM 927 30 mg/kg i.p.) was “significant increase” each time. Further, the “paw withdrawal latency in von Frey filament test, difference with vehicle-treated group” value in the test on ddC-rats [4] (SPM 927 3 mg/kg i.p.), in the test on ddC-rats [4] (SPM 927 10 mg/kg i.p.), with ddC-rats [4] (SPM 927 30 mg/kg i.p.), with vincristine-rats [8] (SPM 927 10 mg/kg i.p.) and in the test with vincristine-rats [8] (SPM 927 30 mg/kg i.p.) was “reached the significance level” in each case. In addition, the “threshold latency in hot plate (38° C.) test vs vincristine/vehicle” value was “significant (p<0.05, Dunneft's test) increase” with vincristine-rats [5] (SPM 927 3 mg/kg i.p.); “significant (p<0.05, Dunneft's test) increase” with vincristine-rats [5] (SPM 927 10 mg/kg i.p., comparable with control animals); “significant (p<0.05, Dunneft's test) increase” in the test with vincristine-rats [5] (SPM 927 30 mg/kg i.p., comparable with control animals). Moreover, the “threshold latency in cold bath test vs vincristine/vehicle” value in the test on vincristine-rats [6] (SPM 927 3 mg/kg i.p., slightly greater than vincristine-animals) is reported as “statistical difference was not reached”; in the test on vincristine-rats [6] (SPM 927 10 mg/kg i.p., p<0.05 Dunnett's, comparable to control animals), “significant increase”; in the test with vincristine-rats [6] (SPM 927 30 mg/kg i.p., p<0.05 Dunnett's, comparable to control animals), “significant increase”. The “analgesic activity compared with morphine” value in [10] (systemic administration) is listed as “overall more active than morphine”. For the same compound, in [10] (systemic, single dose administration), the “anti-allodynic and anti-hyperalgesic effect” value is given as “dose-dependent”. Besides, the “latency to remove paw (thermal paw testing), post-treatment vs 'cells only'” value in [11] is given as “different”. For the same compound, the “amount of weight placed on contralateral paw (weight bearing difference) vs 'cells only' group” value in [12] was “significant reduction”. The “paw withdrawal latency in hot plate test at 52° C. vs vehicle-treated animals” value in the test on vincristine-rats [13] (SPM 927 3 mg/kg i.p.) is “significant increase”; in the test with vincristine-rats [13] (SPM 927 10 mg/kg i.p.), “significant increase”; with vincristine-rats [13] (SPM 927 30 mg/kg i.p.) it was “significant increase”; in the test on ddC-rats [14] (SPM 927 30 mg/kg i.p., p<0.05 Dunnett's), “significant increase”. Also, the “paw withdrawal latency in hot plate test at 52° C., effect” value in the test with ddC-rats [14] (SPM 927 3 mg/kg i.p.) and in the test with ddC-rats [14] (SPM 927 10 mg/kg i.p.) was “comparable with untreated vehicle group” in each case.
